Series [1] is described as follows: Ascorbate reduction challenge (UV-vis). It is filed as physicochemical. The note with it: 0.1 mM Fe-BBG, 0.1 mM sodium ascorbate, pH 7.4.
Another series concerns the target apo-transferrin (Homo sapiens, UniProt P02787). The series can be described thus: Time course of Fe3+ transfer to apo-transferrin (fluorescence at 330 nm). It counts as biochemical. The conditions noted are these: 40 μM Fe-BBG, 20 μM apo-transferrin, pH 7.4; instrument temporal resolution 6 s. The protocol:
FIG. 5 plots the time course of Fe^3+ transfer of Fe-BBG to transferrin. The reaction was monitored through the quenching of apo-transferrin intrinsic fluorescence (conditions: 40 μM Fe-BBG, 20 μM apo-transferrin, 50 mM HEPES buffer supplemented with 25 mM HCO3, pH 7.4; 25° C. λEx=280 nm.). Fe^3+ transfer from Fe-BBG to apo-transferrin was complete within 6 s. The temporal resolution of the instrument is 6 s, and the reaction is too fast for us to quantify kinetics.

Series [2] can be described thus: Labile iron in serum after i.v. injection (dihydrorhodamine 123 oxidation). It is filed as in vivo, mouse. The protocol:
These are the same serum samples as in FIG. 9. The assay was performed as described in Blood 2003, 102 (7), 2670-2677.
To quantify labile iron released by Fe-BBG after intravenous injection, male C57BL/6 mice received either 0.01 mmol Fe-BBG/kg (0.56 μg Fe per g body weight), 0.1 mmol Fe-BBG/kg (5.6 μg Fe per g body weight), or placebo (saline vehicle) via tail vein injection and were euthanized either 5 min, 60 min or 100 min post-injection. Blood serum was harvested and labile Fe in each sample quantified by spectrophotometrically monitoring the rate of dihydrorhodamine 123 oxidation under redox forcing conditions, as reported in Blood 2003, 102 (7), 2670-2677 and described below:
Quadruplicates of 20 μL serum were transferred to clear-bottom 96-well plates. To 2 of the wells was added 180 μL iron-free HEPES buffered saline (HBS) (preincubated at 37° C.) containing 40 μM ascorbate and 50 µM dihydrorhodamine 123 (DHR). […] The kinetics of fluorescence increase were followed at 37° C. in a Molecular Devices FlexStation 3 microplate reader with 485/538 nm excitation/emission filter pair, for 40 minutes, with readings every 2 minutes. The slopes (R) of DHR fluorescence intensity with time were calculated from measurements taken between 16 and 40 minutes and are given as FU·minute^−1 (fluorescence units per minute). […]

For the next series, the system named is normal male C57BL/6 mice. The series can be described thus: Serum nonheme iron parameters after i.v. injection (ferrozine assay). It is filed as in vivo, mouse. As to the method: The in vivo efficacy of Fe-BBG as a direct-to-transferrin Fe replacement drug was preliminary evaluated in normal male C57BL/6mice. Mice received either 0.01 mmol Fe-BBG/kg (0.56 μg Fe per g body weight), 0.1 mmol Fe-BBG/kg (5.6 μg Fe per g body weight), or placebo (saline vehicle) via tail vein injection and were euthanized either 5 min, 60 min or 100 min post-injection. Serum nonheme iron parameters were then quantified using the spectrophotometric ferrozine assay.
FIG. 9 compares serum iron, total iron binding capacibity (TIBC), and unbound iron binding capacity (UIBC), recorded in mice treated with placebo and in serum harvested either 5 min, 60 min, or 100 min after Fe-BBG injection. The percentage transferrin saturation (% TSAT) was calculated at the 60 min and 100 min time points, at which point Fe-BBG and the BBG ligand remaining after trans-chelation with apo-transferrin had diminished to levels that will not interfere with the spectrophotometric assay.

A further series deals with Tmprss6 knockout mice. The series can be described thus: Therapeutic efficacy in mouse model of iron refractory iron deficiency anemia. It counts as in vivo. As to the method:
Tmprss6 knockout mice received 29 intraperitoneal injections each containing 25 μg Fe as Fe-BBG (1.3±0.18 μg Fe per gram body weight, N=5 mice, 2 male, 3 female) or containing saline (placebo, N=5 mice, 2 male, 3 female) over 15 days. The cumulative dose of Fe was 725 μg Fe (37±0.53 μg Fe per gram body weight). The mice were euthanized 120 min after the final injection. Blood was harvested for measurement of complete blood counts, and nonheme Fe parameters. Bone marrow and liver tissue were analyzed by qPCR for expression of genes related to erythropoietic activity, Fe exposure, oxidative stress, and inflammation, the data are tabulated in FIG. 15. Clinical chemistry was also recorded, see Example 16 below. FIG. 15 data are shown as mean±standard deviation. Statistical differences between groups were determined by two-tailed Student's t-test for normally distributed values or Mann-Whitney (/test for non-normally distributed values. Significant differences are indicated by *P<0.05, **P<0.01, ****P<0.0001.

Where [3] appears, read: 0.56 or 5.6 μg Fe per g i.v., 5, 60, 100 min, vs placebo.
Where [4] appears, read: 29 i.p. injections of 25 μg Fe over 15 days, vs placebo.
Where [5] appears, read: 120 min after final injection, vs placebo.

“Also recorded” adds a separate entry of the source. A value given as a limit tells only on which side of the number the result lay.

Sequence of apo-transferrin (P02787 20-698): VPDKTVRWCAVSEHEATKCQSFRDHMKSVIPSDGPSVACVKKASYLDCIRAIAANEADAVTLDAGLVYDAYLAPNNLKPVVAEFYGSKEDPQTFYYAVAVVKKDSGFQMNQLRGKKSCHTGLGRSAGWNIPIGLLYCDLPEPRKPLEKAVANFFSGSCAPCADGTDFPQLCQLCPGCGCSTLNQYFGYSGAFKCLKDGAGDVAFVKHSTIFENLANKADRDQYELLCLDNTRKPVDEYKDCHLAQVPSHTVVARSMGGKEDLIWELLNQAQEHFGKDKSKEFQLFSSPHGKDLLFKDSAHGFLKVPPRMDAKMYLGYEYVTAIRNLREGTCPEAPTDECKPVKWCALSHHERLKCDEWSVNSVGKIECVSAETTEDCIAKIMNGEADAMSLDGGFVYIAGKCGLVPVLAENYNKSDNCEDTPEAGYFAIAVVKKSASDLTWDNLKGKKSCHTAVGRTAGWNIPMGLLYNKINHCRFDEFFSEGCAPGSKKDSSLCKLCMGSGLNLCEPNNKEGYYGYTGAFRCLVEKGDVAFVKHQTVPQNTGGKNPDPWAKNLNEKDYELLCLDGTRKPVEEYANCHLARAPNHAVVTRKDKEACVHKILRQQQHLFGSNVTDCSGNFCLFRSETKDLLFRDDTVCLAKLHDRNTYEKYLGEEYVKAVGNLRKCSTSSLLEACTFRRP

As for `O.O.O=C([O-])CC[C@H]1C(=O)[O][Fe]2[O]c3ccccc3CN1Cc1ccccc1[O]2` [Fe-BBG], the “462 nm absorption peak upon challenge with ascorbate” value in series [1] is “remains unchanged”. The “time to complete Fe^3+ transfer to apo-transferrin” value on apo-transferrin is ≤ 6 s. In addition, in series [2] (0.56 or 5.6 μg Fe per g, 5, 60, 100 min), the “labile iron release in vivo” value is given as “does not contribute detectable quantities of labile Fe; also recorded: does not release labile iron in vivo”. In addition, the “labile Fe concentration in serum” value in series [2] (5 min after injection of 5.6 μg Fe/g) was < 0.2 µM. Also, in the series on normal male C57BL/6 mice (setting [3]), the serum iron result is recorded as “rapidly raises” and the “total iron binding capacity (TIBC)” value is listed as “rapidly raises; also recorded: does not decrease”. The “unbound iron binding capacity (UIBC)” value in the series on normal male C57BL/6 mice (0.56 or 5.6 μg Fe per g i.v., vs placebo) is “does not reduce UIBC significantly”. For the same compound, the “percentage transferrin saturation (% TSAT)” value with normal male C57BL/6 mice (60 and 100 min, vs placebo) is on record as “elevates % TSAT significantly”. Moreover, the “total serum nonheme Fe relative to placebo treated mice” value in the series with normal male C57BL/6 mice (5 min after 5.6 μg Fe/g) was found to be 25 fold. Moreover, in the series on Tmprss6 knockout mice (setting [4]), the hematocrit result is reported as “increased significantly”, the hemoglobin result is recorded as “significant elevation”, the mean corpuscle volume entry is reported as “significantly increased” and the red cell width entry is on record as “significantly increased”. Also, in the series on Tmprss6 knockout mice (setting [5]), the “mean % TSAT increase” value is given as ~7 fold, the “serum Fe” value is “elevated”, the “total iron binding capacity (TIBC)” value is “unchanged relative to placebo” and the “unbound iron binding capacity (UIBC)” value was “concomitant decrease”. The “clearance of Fe-BBG from serum” value in the series with Tmprss6 knockout mice (120 min after the final injection) was “cleared entirely”. In addition, the “bone marrow erythroferrone (Erfe) expression” value in the series on Tmprss6 knockout mice (qPCR) was “significantly downregulated”. In the series on Tmprss6 knockout mice (qPCR, bone marrow), the “glycophorin A (GypA) expression” value is “downregulated” and the “transferrin receptor type 1 (Tfrc) expression” value is given as “downregulated”. Moreover, in the series on Tmprss6 knockout mice (vs placebo), the other hematology parameters entry is reported as “No noteworthy differences”.

(Values after patent US20260132160A1, “IRON REPLACEMENT TREATMENTS” (The General Hospital Corporation, priority 2022, published 2026).)
